This experiment has as its target T1, Human M4 (Homo sapiens, UniProt P08173).
T1 construct: expressed in transfected cells; host or cells: CHO-K1 (American Type Culture Collection), stably expressing M4 and Gqi5
T1 sequence (P08173 1-479): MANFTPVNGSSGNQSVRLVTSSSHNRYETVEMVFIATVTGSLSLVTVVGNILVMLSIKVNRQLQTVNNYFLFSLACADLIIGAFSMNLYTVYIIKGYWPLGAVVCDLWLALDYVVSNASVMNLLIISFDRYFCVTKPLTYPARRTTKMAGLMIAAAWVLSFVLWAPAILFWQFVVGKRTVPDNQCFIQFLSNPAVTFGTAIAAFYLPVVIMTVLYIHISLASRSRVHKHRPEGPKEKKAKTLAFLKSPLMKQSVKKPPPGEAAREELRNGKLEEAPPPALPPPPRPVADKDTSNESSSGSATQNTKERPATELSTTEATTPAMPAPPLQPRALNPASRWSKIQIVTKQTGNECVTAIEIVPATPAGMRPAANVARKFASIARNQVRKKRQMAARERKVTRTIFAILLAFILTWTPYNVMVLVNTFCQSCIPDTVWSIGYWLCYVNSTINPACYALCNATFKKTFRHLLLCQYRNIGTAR
Briefly: mAChR M4 cell-based functional assay (calcium flux, potentiation of EC20 acetylcholine response). Particulars: M4/Gqi5/CHO-K1 cells; for Emax at 30 µM: % ACh maximum at 30 μM; for EC50: PAM activity as increase in EC20 acetylcholine response. As to the method: Human M4 cDNA, along with the chimeric G protein Gqi5, were transfected into Chinese hamster ovary (CHO-K1) cells purchased from the American Type Culture Collection using Lipofectamine2000. M4/Gqi5/CHO cells were grown in Ham's F-12 medium containing 10% heat-inactivated fetal bovine serum (FBS), 20 mM HEPES, 500 μg/mL G418 sulfate, and 200 μg/mL Hygromycin B.
For high throughput measurement of agonist-evoked increases in intracellular calcium, CHO-K1 cells stably expressing muscarinic receptors were plated in growth medium lacking G418 and hygromycin at 15,000 cells/20 μL/well in Greiner 384-well black-walled, tissue culture (TC)-treated, clear-bottom plates (VWR). Cells were incubated overnight at 37° C. and 5% CO2. The next day, cells were washed using an ELX 405 (BioTek) with assay buffer; the final volume was then aspirated to 20 μL. Next, 20 μL of a 2.3 μM stock of Fluo-4/acetoxymethyl ester (Invitrogen, Carlsbad, Calif.), prepared as a 2.3 mM stock in DMSO and mixed in a 1:1 ratio with 10% (w/v) Pluronic F-127 and diluted in assay buffer, was added to the wells and the cell plates were incubated for 50 min at 37° C. and 5% CO2. Dye was removed by washing with the ELX 405 and the final volume was aspirated to 20 μL. Compound master plates were formatted in an 11 point concentration-response curve (CRC) format (1:3 dilutions) in 100% DMSO with a starting concentration of 10 mM using a BRAVO liquid handler (Agilent). Test compound CRCs were then transferred to daughter plates (240 nL) using the Echo acoustic plate reformatter (Labcyte, Sunnyvale, Calif.) and then diluted into assay buffer (40 μL) to a 2× stock using a Thermo Fisher Combi (Thermo Fisher Scientific, Waltham, Mass.).
Calcium flux was measured using the Functional Drug Screening System (FDSS) 6000 or 7000 (Hamamatsu Corporation, Tokyo, Japan) as an increase in the fluorescent static ratio. Compounds were applied to cells (20 μL, 2×) using the automated system of the FDSS at 2-4 seconds into the protocol and the data were collected at 1 Hz. At approximately 144 s, […] an EC20 concentration of the muscarinic receptor agonist acetylcholine was added (5×), followed by the addition of 12 μL of an EC80 concentration of acetylcholine at approximately the 230 s time point (5×). Agonist activity was analyzed as a concentration-dependent increase in calcium mobilization upon compound addition. Positive allosteric modulator activity was analyzed as a concentration-dependent increase in the EC20 acetylcholine response. Antagonist activity was analyzed as a concentration-dependent decrease in the EC80 acetylcholine response. Concentration-response curves were generated using a four-parameter logistical equation in XLFit curve fitting software (IDBS, Bridgewater, N.J.) for Excel (Microsoft, Redmond, Wash.) or Prism (GraphPad Software, Inc., San Diego, Calif.) or the Domatics software platform (Domatics, Bishop's Stortford, UK).
Compounds were synthesized as described above. Activity (EC50 and Emax) was determined in the mAChR M4 cell-based functional assay as described above and the data are shown in Table 2. The compound numbers correspond to the compound numbers used in Table 1.
Background: A change in cytosolic calcium serves as a functional read-out for many receptors and channels.

By Emax is commonly meant the greatest response seen or fitted, relative to the assay's reference. In general, EC50 refers to the concentration at which the effect is half-maximal. In the case of `Cc1c2c(N)c(C(=O)NCc3ccc(F)cc3)sc2nn2cnnc12` [Compound 9, 8-amino-N-(4-fluorobenzyl)-9-methylthieno[3,2-e][1,2,4]triazolo[4,3-b]pyridazine-7-carboxamide], the maximum response (Emax) at 30 µM stood at 76.3% and the EC50 is 1.12 µM.

For `Cc1c2c(N)c(C(=O)NC3Cc4ccccc4C3)sc2nn2cnnc12` [Compound 3, 8-amino-N-(2,3-dihydro-1H-inden-2-yl)-9-methylthieno[3,2-e][1,2,4]triazolo[4,3-b]pyridazine-7-carboxamide], the Emax at 30 µM is 82.3% and the EC50 came out at 0.09 µM.

On to `Cc1c2c(N)c(C(=O)NC3CCN(c4ccccc4)CC3)sc2nn2cnnc12` [Compound 7, 8-amino-9-methyl-N-(1-phenylpiperidin-4-yl)thieno[3,2-e][1,2,4]triazolo[4,3-b]pyridazine-7-carboxamide], for which the Emax at 30 µM worked out at 42.5% and the half-maximal effective concentration (EC50) turned out to be 7 µM.

For `Cc1c2c(N)c(C(=O)NC3CCC3)sc2nn2cnnc12` [Compound 6, 8-amino-N-cyclobutyl-9-methylthieno[3,2-e][1,2,4]triazolo[4,3-b]pyridazine-7-carboxamide], the Emax at 30 µM worked out at 71.8% and the EC50 turned out to be 0.89 µM.

For the compound `Cc1c2c(N)c(C(=O)N3CCCC3)sc2nn2cnnc12` [Compound 2, (8-amino-9-methylthieno[3,2-e][1,2,4]triazolo[4,3-b]pyridazin-7-yl)(pyrrolidin-1-yl)methanone], the Emax at 30 µM came out at 72.2% and the half-maximal effective concentration (EC50) amounted to 9.67 µM.

In the case of `COc1ccc(CNC(=O)c2sc3nn4cnnc4c(C)c3c2N)cc1` [Compound 4, 8-amino-N-(4-methoxybenzyl)-9-methylthieno[3,2-e][1,2,4]triazolo[4,3-b]pyridazine-7-carboxamide], the Emax at 30 µM was found to be 80.6% and the EC50 amounted to 0.67 µM.

Turning to `Cc1c2c(N)c(C(=O)NC3CC3)sc2nn2cnnc12` [Compound 5, 8-amino-N-cyclopropyl-9-methylthieno[3,2-e][1,2,4]triazolo[4,3-b]pyridazine-7-carboxamide], the Emax at 30 µM worked out at 74.2% and the EC50 was 0.29 µM.

Consider `Cc1c2c(N)c(C(=O)NCc3cccc(F)c3)sc2nn2cnnc12` [Compound 8, 8-amino-N-(3-fluorobenzyl)-9-methylthieno[3,2-e][1,2,4]triazolo[4,3-b]pyridazine-7-carboxamide], for which the Emax at 30 µM came to 78% and the EC50 was determined as 0.37 µM.

Regarding `Cc1c2c(N)c(C(=O)N3CCC(c4ccccc4)C3)sc2nn2cnnc12` (stereo not drawn) [Compound 1, (8-amino-9-methylthieno[3,2-e][1,2,4]triazolo[4,3-b]pyridazin-7-yl)(3-phenylpyrrolidin-1-yl)methanone], the Emax at 30 µM was 38.8% and the EC50 came out at 3.33 µM.

Source of the values: patent publication US10189857B2, “Positive allosteric modulators of the muscarinic acetylcholine receptor M4” (Vanderbilt University, priority 2016, dated 2019).
